# Assay results as given in PMC9827040 (Blood Advances, 2022).
# Legend:
# [1] = system: CRBN neosubstrates (Ikaros, Helios, Aiolos, GSPT1, CK1-a); experiment: Immunoblotting of CRBN neosubstrates in hematological cell lines; assay type: cell-based; settings: 100 nM, 24 or 72 hours
# [2] = system: CCL3 and CCL4 secretion by TMD-8 cells; experiment: CCL3 & CCL4 ELISA in anti-IgM stimulated TMD-8 cells; assay type: cell-based, human; settings: 10 nM for 24 hours, 10 μg/mL anti-IgM 8 hours
# [3] = system: WT and mutant BTK (E41K, T474I, C481S, C481R, C481T, C481Y, C481F, L528W); experiment: WT or mutant BTK transiently expressed in HEK293 cells, immunoblotting; assay type: cell-based; settings: HEK293, 0.1, 1 and 10 μM, 24 hours
# [4] = system: TMD-8 BTK C481S cells; experiment: Cell proliferation, C481S BTK-overexpressing TMD-8 cells; assay type: cell-based, human
# [5] = molecular target: CRBN (Homo sapiens, UniProt Q96SW2); experiment: CRBN-target-binding assay; settings: HTRF
# Chain of CRBN (Q96SW2 whole entry): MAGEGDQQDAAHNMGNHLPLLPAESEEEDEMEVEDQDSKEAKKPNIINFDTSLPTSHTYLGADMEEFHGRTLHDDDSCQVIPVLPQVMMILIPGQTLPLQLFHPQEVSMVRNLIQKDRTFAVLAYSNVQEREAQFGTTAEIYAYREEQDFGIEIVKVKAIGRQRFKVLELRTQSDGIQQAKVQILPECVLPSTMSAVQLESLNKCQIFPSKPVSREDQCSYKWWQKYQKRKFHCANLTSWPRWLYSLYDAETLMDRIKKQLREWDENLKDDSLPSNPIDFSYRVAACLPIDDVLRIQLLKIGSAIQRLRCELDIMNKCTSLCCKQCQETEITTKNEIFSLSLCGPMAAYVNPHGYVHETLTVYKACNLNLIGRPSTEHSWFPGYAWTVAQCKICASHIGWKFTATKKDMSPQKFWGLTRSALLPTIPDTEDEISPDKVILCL
binding to CRBN [5],Compound,CCL3 or CCL4 secretion [2],also measured
–,O=C1CCC(N2C(=O)c3ccccc3C2=O)C(=O)N1 (centres unmarked) [thalidomide],–,change in neosubstrates of U2932 and WSU-WM [1]: No significant change; degradation of CRBN neosubstrates in any of the tested cell lines [1]: did not lead to any significant degradation
–,Nc1ncnc2c1c(-c1ccc(Oc3ccccc3)cc1)nn2C1CCN(CCOCCOCC(=O)Nc2ccc3c(c2)C(=O)N(C2CCC(=O)NC2=O)C3=O)CC1 (centres unmarked) [MT-802],little or no effect,"degradation of WT and mutant BTK [3]: can also degrade E41K, C481R, C481Y, C481T, and C481F BTK mutants"
did not bind to CRBN,C=CC(=O)N1CCC[C@@H](n2nc(-c3ccc(Oc4ccccc4)cc3)c3c(N)ncnc32)C1 [ibrutinib],significantly abrogated CCL3 or CCL4 secretion,inhibition of proliferation of C481S BTK-overexpressing TMD-8 cells [4]: resistance
did not bind to CRBN,O=C(c1ccc(Oc2ccccc2)cc1Cl)c1c[nH]c2ncnc(N[C@@H]3CC[C@@H](CO)OC3)c12 [ARQ-531],little or no effect,BTK phosphorylation in C481S and E41K BTK mutants [3]: substantially attenuated
–,CC#CC(=O)N1CCC[C@H]1c1nc(-c2ccc(C(=O)Nc3ccccn3)cc2)c2c(N)nccn12 [acalabrutinib],significantly abrogated CCL3 or CCL4 secretion,–
